From US11505537B2, “Compositions comprising methylphenidate-prodrugs, processes of making and using the same” (KemPharm, Inc., priority 2016, dated 2022)
Counter-ions that a name gives are not always drawn. Like-named read-outs stand apart in the source and are kept apart here.

Columns and labels:
[1] = Oral PK in rats of d- and l-isomers (unconjugated MPH, L-Ser and L-Thr conjugates) at equimolar doses; conditions: for d:l Ratio Tmax / d:l Ratio AUC / d:l Ratio Cmax: d-isomer vs l-isomer; for d:l Ratio AUC: mean AUC; for d:l Ratio Cmax: mean Cmax; for Cmax: equimolar doses
Protocol: In another embodiment, the following compounds were dosed orally in rats at equimolar doses: d-MPH.HCl, l-MPH.HCl, d-MPH-CO2CH2-nicotinoyl-L-Ser, l-MPH-CO2CH2-nicotinoyl-L-Ser, d-MPH-CO2CH2-nicotinoyl-L-Thr, and l-MPH-CO2CH2-nicotinoyl-L-Thr.

[2] = Human single- and multiple-dose PK of d-MPH HCl/conjugate dose mixtures vs Concerta 54 mg, once daily for 7 days, fasted; type: in vivo
Source text: Forty-eight (48) healthy volunteers (12 per treatment arm) were enrolled in this open-label, single- and multiple-dose, four-treatment, one-period parallel PK trial.
Eligible subjects included healthy male and female volunteers between the age of 18 and 55 years with a body mass index (BMI) between 18 and 32 kg/m^2 and a body weight between 60 and 100 kg at screening. The primary objective of the study was to assess the single and multiple dose pharmacokinetics of d-MPH-CO2CH2-nicotinoyl-L-Ser and d-methylphenidate following multiple doses of different combinations of d-methylphenidate HCl/d-MPH-CO2CH2-nicotinoyl-L-Ser Chloride administered orally once per day for 7 days in healthy volunteers under fasted conditions, compared to the same dosing regimen with a Concerta® tablet. After the 1st dose of study drug (Day 1), blood samples for PK were collected at pre-dose (0 hour; within 1 hour prior to dosing), and at 0.5, 1, 1.5, 2, 2.5, 3, 4.5, 6, 7, 7.5, 8, 8.5, 9, 10, 12, 13, and 24 hours±5 minutes post-dose. The 24-hr post-dose blood sample was taken before administration of the 2nd dose of study drug. After the 2nd, 3rd, 4th, 5th and 6th dose of study drug (Days 2-6), blood samples were collected at pre-dose (within 10 minutes prior to dosing), and at 1.5 and 8 hours±5 minutes post-dose. The pre-dose sample on Day 2 was the same as the 24-hour post-dose sample after the 1st dose. After the last dose (7th dose) of study drug (Day 7), blood samples for PK were collected at pre-dose (within 10 minutes prior to dosing), and at 0.5, 1, 1.5, 2, 2.5, 3, 4.5, 6, 7, 7.5, 8, 8.5, 9, 10, 12, 13, 24, 36, 48, 60 and 72 hours±5 minutes post-dose.

[3] = Human single-dose PK of 60 mg d-MPH-CO2CH2-nicotinoyl-L-Ser chloride capsules, fasted and fed; type: in vivo; conditions: for AUC(0-inf) / half-life / AUC(0-t) / Tmax / Cmax: both sexes, plasma, analyte d-MPH-CO2CH2-nicotinoyl-L-Ser; for Tmax: read-out: Tmax (median)
Protocol: A human study was conducted to evaluate the pharmacokinetics of d-MPH-CO2CH2-nicotinoyl-L-Ser and d-methylphenidate after oral administration of 60 mg d-MPH-CO2CH2-nicotinoyl-L-Ser chloride gelatin capsules in healthy volunteers under fasted and fed conditions. Fourteen (14) subjects were enrolled in this phase 1, open-label, single dose, two-period, randomized, crossover study. Eligible subjects included healthy male and female volunteers between the age of 18 and 55 years with a body mass index (BMI) between 18 and 32 kg/m^2 and a body weight between 50 and 100 kg at screening.
Two single-dose treatments were administered with a minimum 96-hour washout period between doses. Blood samples for pharmacokinetics were collected pre-dose and at 0.5, 0.75, 1, 1.5, 2, 2.5, 3, 3.5, 4.5, 6, 8, 10, 12, 16, 24, and 36 hours±5 minutes post-dose, in each treatment period.

[4] = Human single-dose PK of 32 mg d-MPH-CO2CH2-nicotinoyl-L-Ser oral liquid, fasted; conditions: single 32 mg oral liquid
Source text: Twenty-four (24) healthy volunteers were enrolled in this open-label, single-dose, two-treatment, two-period PK trial.

[5] = Oral PK in rats, conjugate vs unconjugated d-methylphenidate (LC-MS/MS); type: in vivo; conditions: analyte d-methylphenidate, […] d-MPH content, hydrochloride
Protocol: (§1) The plasma concentrations of d-methylphenidate were measured by LC-MS/MS over time. The oral plasma concentrations of d-methylphenidate released from d-threo-MPH-CO2CH2-nicotinoyl-L-Ser were compared with unconjugated d-methylphenidate after oral administration in rats.
The human equivalent dose for the conjugate was 0.8 mg/kg as compared to 0.4 mg/kg for unconjugated d-methylphenidate.

[6] = Intranasal PK in rats, conjugate vs unconjugated d-methylphenidate; type: in vivo; conditions: analyte d-methylphenidate
Protocol: as §1
As shown in FIG. 5 and Table 10, after 4.75 mg conjugate was intranasally administered to rats, plasma concentrations of d-methylphenidate released from the conjugate are substantially flat from about 0 to about 1 hour following intranasal administration in a rat. […] Conjugated d-methylphenidate was about 6% AUC and 5% Cmax of unconjugated d-methylphenidate.

[7] = Intravenous PK in rats, conjugate vs unconjugated d-methylphenidate; type: in vivo; conditions: analyte d-methylphenidate
[8] = Solubility in IPA/IPAc inferred from recrystallization; type: physicochemical; conditions: isopropylalcohol/isopropylacetate, from recrystallization yields
Source text: In one embodiment, the conjugate d/l-MPH-CO2CH2-nicotinoyl-L-Ser was recrystallized from a mixture (1:1) of isopropylalcohol (IPA) and isopropylacetate (IPAc) yielding approximately 45.2% of product (purity of about 98% by HPLC). A similar amount of d-MPH-CO2CH2-nicotinoyl-L-Ser recrystallized from IPA and IPAc (2:1) yielded approximately 81.5% of product (purity of about 97.6% by HPLC).

With COC(=O)C(c1ccccc1)C1CCCCN1C(=O)OC[n+]1cccc(C(=O)N[C@@H](CO)C(=O)[O-])c1 (stereo partly drawn) [MPH-CO2CH2-nicotinoyl-L-Ser] the “d:l Ratio Tmax” value [1] was 182%, the “d:l Ratio AUC” value [1] was 73% and the “d:l Ratio Cmax” value [1] was 94%.
In the case of COC(=O)C(c1ccccc1)C1CCCCN1C(=O)OC[n+]1cccc(C(=O)N[C@H](C(=O)[O-])[C@@H](C)O)c1 (stereo partly drawn) [MPH-CO2CH2-nicotinoyl-L-Thr], the “d:l Ratio Tmax” value [1] is reported as 57%, the “d:l Ratio AUC” value [1] is reported as 53% and the “d:l Ratio Cmax” value [1] is reported as 58%.
In the case of COC(=O)[C@H](c1ccccc1)[C@H]1CCCCN1C(=O)OC[n+]1cccc(C(=O)N[C@@H](CO)C(=O)O)c1.[Cl-] [d-MPH-CO2CH2-nicotinoyl-L-Ser chloride, 3-((S)-1-carboxy-2-hydroxyethylcarbamoyl)-1-(((R)-2-(2-(R)-methoxy-2-oxo-1-phenylethyl)piperidine-1-carbonyloxy)methyl)pyridium chloride], the concentration at 24 h ([2]; both sexes, human, plasma, oral dose mixtures, adult humans, FIGS. 14-25, read-out: Plasma concentration of intact d-MPH-CO2CH2-nicotinoyl-L-Ser chloride at 24 hours post dose) is reported as < 1 ng/mL, the “Accumulation of intact d-MPH-CO2CH2-nicotinoyl-L-Ser chloride in the bloodstream after the 7th dose” value ([2]; dose 1 vs dose 7 plasma concentrations at 24 hours) is reported as “negligible” and the “Time until which plasma concentrations of intact d-MPH-CO2CH2-nicotinoyl-L-Ser chloride increased” value ([2]; oral dose mixtures, adult humans, FIGS. 14-25) is reported as “about 2 hours”. The “peak d-MPH exposure in the fed state vs fasted” value ([3]; analyte d-MPH, single oral 60 mg) was “slightly higher”, the AUC(0-inf) ([3]; human, oral, 60 mg, Fasted) was 309 ng·h/mL and the half-life ([3]; human, oral, 60 mg, Fasted) was 350 min. For the same molecule, the AUC(0-t) ([3]; human, oral, 60 mg, Fasted, read-out: AUC0-24 hr) was 300 ng·h/mL, the AUC(0-t) ([3]; human, oral, 60 mg, Fasted, read-out: AUC0-last) was 306 ng·h/mL and the Tmax ([3]; human, oral, 60 mg, Fasted) was 30 min. It also gave an AUC(0-inf) ([3]; human, oral, 60 mg, Fed) of 84.2 ng·h/mL, a Cmax ([3]; human, oral, 60 mg, Fed) of 10.2 ng/mL and a half-life ([3]; human, oral, 60 mg, Fed) of 366 min. The AUC(0-t) ([3]; human, oral, 60 mg, Fed, read-out: AUC0-24 hr) was 77.9 ng·h/mL, the AUC(0-t) ([3]; human, oral, 60 mg, Fed, read-out: AUC0-last) was 81.1 ng·h/mL and the Tmax ([3]; human, oral, 60 mg, Fed) was 180 min. It also gave a Cmax ([3]; Fasted, single oral 60 mg, human adults) of 75.6 ng/mL.
With COC(=O)[C@H](c1ccccc1)[C@H]1CCCCN1C(=O)OC[n+]1cccc(C(=O)N[C@@H](CO)C(=O)O)c1 [d-MPH-CO2CH2-nicotinoyl-L-Ser, d-methylphenidate-CO2CH2-nicotinoyl-L-Ser] the “Plasma concentration of intact prodrug at 24 hours post dose” value [4] was “about 0” and the “Time until which plasma concentrations of intact prodrug increased” value ([4]; N=24) was “about 2 hours”.
For COC(=O)[C@H](c1ccccc1)[C@H]1CCCCN1C(=O)OC[n+]1cccc(C(=O)N[C@H](C(=O)O)[C@@H](C)O)c1.[Cl-] [d-MPH-CO2CH2-nicotinoyl-L-Thr, 3-(((1S,2R)-1-carboxy-2-hydroxypropyl)carbamoyl)-1-(((R)-2-(2-(R)-methoxy-2-oxo-1-phenylethyl)piperidine-1-carbonyloxy)methyl)pyridium chloride], the “d:l Ratio AUC” value [1] was ~53% and the “d:l Ratio Cmax” value [1] was “about 58%”.
With COC(=O)[C@H](c1ccccc1)[C@H]1CCCCN1.Cl [d-MPH•HCl, (2R,2′R)-(+)-Methylphenidate hydrochloride] the AUC ([1]; analyte d-MPH) was 119.2 ng·h/mL, the Tmax ([1]; analyte d-MPH) was 24 min and the Cmax ([1]; analyte d-MPH) was 98.9 ng/mL. The “d:l Ratio AUC” value [1] was ~124%, the “d:l Ratio Cmax” value [1] was “about 192%” and the Tmax [5] was 24 min. The Tmax ([5]; listed as unconjugated d-methylphenidate) was “about 0.4 h”, the AUC0-1 h [6] was 1110.8 ng·h/mL and the Cmax [6] was 2561.6 ng/mL. It also gave a Tmax [6] of 6 min, an AUC0-1 h [7] of 312.6 ng·h/mL and an AUC0-2 h [7] of 534.9 ng·h/mL. For the same molecule, the Cmax [7] was 541.8 ng/mL and the Tmax [7] was 24 min.
In the case of COC(=O)[C@@H](c1ccccc1)[C@@H]1CCCCN1C(=O)OC[n+]1cccc(C(=O)N[C@@H](CO)C(=O)[O-])c1 [l-MPH-CO2CH2-nicotinoyl-L-Ser], the “solubility in IPA/IPAc compared to d-MPH-CO2CH2-nicotinoyl-L-Ser” value [8] is reported as “significantly higher”.
In the case of COC(=O)[C@@H](c1ccccc1)[C@@H]1CCCCN1 [l-MPH•HCl], the AUC ([1]; analyte l-MPH) is reported as 96.4 ng·h/mL, the Tmax ([1]; analyte l-MPH) is reported as 42 min and the Cmax ([1]; analyte l-MPH) is reported as 51.5 ng/mL.
For COC(=O)C(c1ccccc1)C1CCCCN1 (stereo not drawn) [unconjugated MPH, methyl 2-phenyl-2-(piperidin-2-yl)acetate], the “d:l Ratio Tmax” value [1] was 62%.
